Test system: PS1
Assay: Western blot of PS1 C-terminal fragment phosphorylation in SweAPP N2a cells
Type: cell-based, murine
Protocol: Cultured cells or mouse brain were lysed in ice-cold lysis buffer described above, and an aliquot corresponding to 50 μg of total protein was electrophoretically separated using 12% Tris-HCl or 16.5% Tris-tricine gels. Electrophoresed proteins were then transferred to PVDF membranes, washed in dH2O, and blocked for 1 hr at ambient temperature in Tris-buffered saline (TBS; Bio-Rad) containing 5% (w/v) non-fat dry milk. After blocking, membranes were hybridized for 1 hr at ambient temperature with various primary antibodies. Membranes were then washed 3× for 5 min each in dH2O and incubated for 1 hr at ambient temperature with the appropriate HRP-conjugated secondary antibody (1:1,000). All antibodies were diluted in TBS containing 5% (w/v) of non-fat dry milk. Blots were developed using the luminol reagent (Pierce Biotechnology). Densitometric analysis was done as previously described using a FluorS Multiimager with Quantity One™ software. Immunoprecipitation was performed for detection of sAPP-α, sAPP-β and Aβ by incubating 200 μg of total protein of each sample with various sequential combinations of 6E10 (1:100) and/or 22C11 (1:100) antibodies overnight with gentle rocking at 4° C., and 10 μL of 50% protein A-Sepharose beads were then added to the sample (1:10; Sigma) prior to gentle rocking for an additional 4 hrs at 4° C. Following washes with 1× cell lysis buffer, samples were subjected to Western blot as described above. Antibodies used for Western blot included the APP-carboxyl-terminal antibody (1:50)), amino-terminal APP antibody (clone 22C11), or 6E10 (1:1,000), or actin antibody (1:1,500; as an internal reference control). γ-secretase activity was quantified in cell lysates using available kits (R&D Systems, Minneapolis, Minn.), based on secretase-specific peptides conjugated to fluorogenic reporter molecules.
The two bands of highest molecular weight, approximately 20 kD and 18 kD in size, represent phosphorylated PS1 CTFs with a smaller 16 kD band representing the more common CTF product indicative of PS1 endoproteolytic cleavage.
To confirm that the 20 kD and 18 kD bands were phosphorylated PS1 isoforms, SweAPP N2a cells were treated with luteolin (20 μM) prior to lysis and cell lysates incubated with calf intestine alkaline phosphatase (CIAP) (Fermentas, Hanover, Md.), to dephosphorylate any potential phosphorylated proteins, to eliminate skewing of electrophorectic mobilities. Following 30 minutes of incubation, the 20 kD band is not evident in the CIAP treated lysates, seen in FIGS. 21(A) through 22, and the 18 kD band reduced while endogenous CTF, 16 kD, appears to accumulate. When compared to lysates incubated with only reaction buffer, phosphorylated residues decrease in a time dependent manner, shown by the 20 kD CTF:16 kD CTF. […] Luteolin affects PS1 phosphorylation and may indicate a means by which γ-secretase activity may be regulated.
To determine if this phenomenon was specifically attributable to luteolin treatment or more generally in regards to GSK-3 inhibition, SweAPP N2a cells were treated with a range of doses of the GSK-3 inhibitor SB-415286 (BIOMOL®, Plymouth Meeting, Pa.). […] FIG. 24(B). GSK-3α and β was successfully knocked-down (>70%, data not shown) with siRNA in SweAPP N2a cells, substantiating the role of GSK-3α in this luteolin-mediated PS1 processing. […]

O=c1cc(-c2ccc(O)c(O)c2)oc2cc(O)cc(O)c12 [luteolin]
PS1 CTF phosphorylation (phospho-PS1 CTF to PS1 CTF ratio): PS1 CTF phosphorylation increases | full-length PS1 or PS1 NTF protein levels (range of doses, 4 hrs): no significant effect
